In patent US20240343727A1, “PYRIDAZINONE OR PYRIDINONE COMPOUNDS, PREPARATION METHODS AND USES THEREOF” (InventisBio Co., Ltd., priority 2021, published 2024):
Read-outs that look alike come from different tables or passages of the source.

How the values were obtained:
NCI-H1373 cells = assay: Inhibition of cancer cell growth in NCI-H1373 cells (Cell-titer Glo, 6 days); format: cell-based; settings: read-out: H1373 Cell Proliferation IC50
Procedure: Biological Assay Example B: Inhibition of cancer cell growth in NCI-H1373 cells by PARP7 inhibitors
NCI-H1373 cells were cultured in RPMI 1640 medium supplemented with 10% fetal bovine serum, 100 U/mL penicillin and 100 ug/mL streptomycin in a 37° C., 5% CO2 incubator. Fifteen hundred cells were seeded into each well of 96-well plate in RPMI1640 medium containing 10% fetal bovine serum and incubated overnight. Serial diluted compounds for each well were added at a final DMSO concentration of 0.5% and a day zero plate was collected for analysis. Compounds were incubated with the cells for 6 days. Cell growth was assessed using Cell-titer Glo reagent (Promega #G^7572). The luminescence signal was collected on Tecan Spark plate reader. Cell growth is determined by correcting for the cell count on day zero. Inhibition rate is calculated with the formula of % inhibition=100*(DMSO control-compounds)/(DMSO control-Blank). Cell growth inhibition IC50 is calculated with the equation of Y-Bottom+ (Top-Bottom)/(1+10^((LogIC50−X) *Hill Slope)).

PARP7 = target: T1, PARP7 (Homo sapiens, UniProt Q7Z3E1); assay: PARP7 TR-FRET assay (binding, displacement of biotinylated Probe A); settings: 6 nM PARP7, 2 nM Probe A, 25° C., 30 min
T1 sequence (Q7Z3E1 1-657): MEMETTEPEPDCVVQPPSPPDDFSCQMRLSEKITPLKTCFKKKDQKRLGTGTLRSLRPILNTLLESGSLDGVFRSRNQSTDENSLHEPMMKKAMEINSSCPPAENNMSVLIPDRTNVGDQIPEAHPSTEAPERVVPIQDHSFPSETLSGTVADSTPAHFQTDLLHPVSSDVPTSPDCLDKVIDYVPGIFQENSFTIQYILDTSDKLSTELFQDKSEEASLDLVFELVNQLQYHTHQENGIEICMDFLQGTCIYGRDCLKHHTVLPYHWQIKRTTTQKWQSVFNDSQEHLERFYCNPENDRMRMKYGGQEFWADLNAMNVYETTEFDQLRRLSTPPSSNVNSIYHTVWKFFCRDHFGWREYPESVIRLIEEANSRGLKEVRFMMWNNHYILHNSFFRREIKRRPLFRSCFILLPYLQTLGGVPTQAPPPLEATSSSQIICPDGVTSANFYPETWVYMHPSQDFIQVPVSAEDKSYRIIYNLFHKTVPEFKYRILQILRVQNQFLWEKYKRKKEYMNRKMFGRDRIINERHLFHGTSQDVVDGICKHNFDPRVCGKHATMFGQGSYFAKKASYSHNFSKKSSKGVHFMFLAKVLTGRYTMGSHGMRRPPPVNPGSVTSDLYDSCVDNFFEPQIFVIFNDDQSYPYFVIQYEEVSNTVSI
In short: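 Compound displacement of biotinylated Probe A (2 nM) from PARP7 (6 nM) measured by TR-FRET in HEPES pH 8.0 buffer, 30 min at 25° C. Detection used ULight-anti 6xHis (4 nM) plus Eu-streptavidin (0.25 nM) for 30 min, reading the 665/615 nm ratio. % inhibition was taken against DMSO and no-enzyme wells, and IC50 from a Hill fit.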

SMILES	IC50 (NCI-H1373 cells; Homo sapiens, NCI-H1373, 144 h) [µM]	IC50 (PARP7) [µM]	IC50 (NCI-H1373 cells) [µM]
O=C(c1cccc(Oc2n[nH]c(=O)c(C(F)(F)F)c2N2CC3(CCC3)C2)c1)N1CCN(c2ncc(Cl)cn2)CC1 [Compound 199]	< 0.1	< 0.1	
O=C(CC1CN(c2n[nH]c(=O)c3cc(F)ccc23)CCO1)N1CCN(c2ncc(C(F)(F)F)cn2)CC1 (single isomer, unassigned) [Compound 50]	0.1 to 1	< 0.1	
COC[C@@H]1C[C@@H](OCC(=O)N2CCN(c3ncc(C(F)(F)F)cn3)CC2)c2n[nH]c(=O)c(C(F)(F)F)c2O1 [Compound 57]	< 0.1	< 0.1	
O=C(CO[C@@H]1CCNc2c1n[nH]c(=O)c2C(F)(F)F)N1CCN(c2ncc(C(F)(F)F)cn2)CC1 (single isomer, unassigned) [Compound 2]	< 0.1	< 0.1	
O=C(c1cc(Oc2n[nH]c(=O)c(C(F)(F)F)c2N2CC3(CCC3)C2)ccn1)N1CCN(c2ncc(C(F)(F)F)cn2)CC1 [Compound 229]	< 0.1	< 0.1	
O=C(C[C@H]1CN(c2cc(C(F)(F)F)c(=O)[nH]n2)c2ccccc2O1)N1CCN(c2ncc(C(F)(F)F)cn2)CC1 [Compound 35]	> 1	0.1 to 1	
O=C(COC1CCOc2c1n[nH]c(=O)c2Cl)N1CCN(c2ncc(C(F)(F)F)cn2)CC1 (single isomer, unassigned) [Compound 54]		< 0.1	> 1
Cc1ccc2c(=O)[nH]nc(N3CCOC(CC(=O)N4CCN(c5ncc(C(F)(F)F)cn5)CC4)C3)c2c1 (single isomer, unassigned) [Compound 123]	> 1	< 0.1	
CN1C[C@@H](OCC(=O)N2CCN(c3ncc(C(F)(F)F)cn3)CC2)c2n[nH]c(=O)c3cc(F)cc1c23 (single isomer, unassigned) [Compound 14]	< 0.1	< 0.1	
Cc1c(Oc2cccc(C(=O)N3CCN(c4ccc(C#N)cn4)CC3)c2)n[nH]c(=O)c1C(F)(F)F [Compound 27]	0.1 to 1	< 0.1	
N#Cc1ccc2c(c1)N(c1cc(C(F)(F)F)c(=O)[nH]n1)CC(CC(=O)N1CCN(c3ncc(Cl)cn3)CC1)O2 (single isomer, unassigned) [Compound 216]	< 0.1	< 0.1	
O=C(COC1CCOc2c1n[nH]c(=O)c2Br)N1CCN(c2ncc(C(F)(F)F)cn2)CC1 (single isomer, unassigned) [Compound 8]	0.1 to 1	< 0.1	
O=C(COC1CCNc2c1n[nH]c(=O)c2C(F)(F)F)N1CCN(c2ncc(C(F)(F)F)cn2)CC1 (racemic) [Compound 1]	0.1 to 1	< 0.1	
O=C(C[C@@H]1CN(c2cc(C(F)(F)F)c(=O)[nH]n2)c2ccccc2O1)N1CCN(c2ncc(C(F)(F)F)cn2)CC1 [Compound 34]	< 0.1	< 0.1	
N#Cc1cnc(N2CCN(C(=O)CC3CN(c4cc(C(F)(F)F)c(=O)[nH]n4)c4cc(C(F)F)ccc4O3)CC2)nc1 (single isomer, unassigned) [Compound 138]		< 0.1	< 0.1
O=C(c1cccc(Oc2n[nH]c(=O)c(C(F)(F)F)c2N2CC3(CCC3)C2)c1)N1CCN(c2cnc(C(F)(F)F)cn2)CC1 [Compound 188]	< 0.1	< 0.1	
N#Cc1ccc(N2CCN(C(=O)c3cccc(Oc4n[nH]c(=O)c(C(F)(F)F)c4N4CC5(CCCO5)C4)c3)CC2)nc1 [Compound 223]	0.1 to 1	< 0.1	
Cc1c(N2CCOc3ccc(C(=O)N4CCN(c5ncc(C(F)(F)F)cn5)CC4)cc32)n[nH]c(=O)c1C(F)(F)F [Compound 78]	0.1 to 1	0.1 to 1	
Cc1c(Oc2cc(C(=O)N3CCN(c4ncc(C(F)(F)F)cn4)CC3)ccc2F)n[nH]c(=O)c1C(F)(F)F [Compound 63]	0.1 to 1	< 0.1	
C[C@@H]1CC[C@@H](CCC(=O)N2CCN(c3ncc(C(F)(F)F)cn3)CC2)N1c1cc(C(F)(F)F)c(=O)[nH]n1 [Compound 156]	< 0.1	< 0.1	
Cc1c(Oc2ccnc(C(=O)N3CCN(c4ncc(C(F)(F)F)cn4)CC3)c2)n[nH]c(=O)c1C(F)(F)F [Compound 21]	0.1 to 1	< 0.1	
Cn1ccc2c(=O)[nH]nc(Oc3cccc(C(=O)N4CCN(c5ncc(C(F)(F)F)cn5)CC4)c3)c21 [Compound 73]	0.1 to 1	< 0.1	
Cc1c(N2C[C@@H](CC(=O)N3CCN(c4ncc(C(F)(F)F)cn4)CC3)O[C@@H](C)C2)n[nH]c(=O)c1C(F)(F)F (stereo in doubt) [Compound 40]	0.1 to 1	< 0.1	
N#Cc1cnc(N2CCN(C(=O)CC3CN(c4cc(C(F)(F)F)c(=O)[nH]n4)c4cc(C(F)F)ccc4O3)CC2)nc1 (single isomer, unassigned) [Compound 140]		< 0.1	> 1

Other lines, results leading:

IC50 (NCI-H1373 cells; Homo sapiens, NCI-H1373, 144 h) [µM]	IC50 (PARP7) [µM]	IC50 (NCI-H1373 cells) [µM]	SMILES
< 0.1	< 0.1		O=C(c1cc(Oc2n[nH]c(=O)c(C(F)(F)F)c2N2CC3(C2)CC(F)(F)C3)ccn1)N1CCN(c2cnc(C(F)(F)F)cn2)CC1 [Compound 331]
< 0.1	< 0.1		C[C@@H]1CN(C(=O)c2cncc(Oc3n[nH]c(=O)c(C(F)(F)F)c3N3CC4(C3)CC(F)(F)C4)c2)CCN1c1ncc(Cl)cn1 [Compound 321]
0.1 to 1	< 0.1		N#Cc1cnc(N2CCN(C(=O)c3cncc(Oc4n[nH]c(=O)c(C(F)(F)F)c4N4CC5(C4)CC(F)(F)C5)c3)CC2)nc1 [Compound 236]
0.1 to 1	< 0.1		O=C(CC1CN(c2cc(C(F)(F)F)c(=O)[nH]n2)c2cc(F)ccc2O1)N1CCN(c2cnc(C(F)(F)F)cn2)CC1 (single isomer, unassigned) [Compound 291]
	< 0.1	< 0.1	O=C(CC1CN(c2cc(C(F)(F)F)c(=O)[nH]n2)c2cc(C(=O)N3CCC3)ccc2O1)N1CCN(c2ncc(C(F)(F)F)cn2)CC1 (single isomer, unassigned) [Compound 336]
0.1 to 1	< 0.1		COCCNC(=O)c1ccc2c(c1)N(c1cc(C(F)(F)F)c(=O)[nH]n1)CC(CC(=O)N1CCN(c3ncc(C(F)(F)F)cn3)CC1)O2 (single isomer, unassigned) [Compound 309]
	< 0.1	> 1	O=C(CC1CN(c2cc(C(F)(F)F)c(=O)[nH]n2)c2cc(C(=O)N3CCC3)ccc2O1)N1CCN(c2ncc(C(F)(F)F)cn2)CC1 (single isomer, unassigned) [Compound 337]
< 0.1	< 0.1		C[C@@H]1CN(C(=O)c2cc(Oc3n[nH]c(=O)c(C(F)(F)F)c3N3CC4(CCC4)C3)ccn2)CCN1c1cnc(C(F)(F)F)cn1 [Compound 353]
< 0.1	< 0.1		C[C@@H]1CN(C(=O)c2cccc(Oc3n[nH]c(=O)c(C(F)(F)F)c3N3CC4(CCO4)C3)c2)CCN1c1ncc(C(F)(F)F)cn1 [Compound 252]
< 0.1	< 0.1		COCc1ccc2c(c1)N(c1cc(C(F)(F)F)c(=O)[nH]n1)CC(CC(=O)N1CCN(c3ncc(C(F)(F)F)cn3)CC1)O2 (single isomer, unassigned) [Compound 266]
< 0.1	< 0.1		CC(C)(O)c1cnc(N2CCN(C(=O)c3cccc(Oc4n[nH]c(=O)c(C(F)(F)F)c4N4CC5(CCC5)C4)c3)CC2)nc1 [Compound 349]
< 0.1	< 0.1		N#Cc1ccc2c(c1)N(c1cc(C(F)(F)F)c(=O)[nH]n1)CC(CC(=O)N1CCN(c3ncc(C4CC4)cn3)CC1)O2 (single isomer, unassigned) [Compound 316]
